Reference: the NIST ThermoML archive (doi:10.1021/je050514j)

Assay: xn = mol fraction of the nth substance listed
Details: 313.15 K, Fluid (supercritical or subcritical phases)

CCOC(C)=O [ethyl acetate] + O=C=O
mass density [kg/m3]
Details	1000 kPa	2000 kPa	3000 kPa	4000 kPa	5000 kPa	6000 kPa	7000 kPa	8000 kPa	9000 kPa	10000 kPa
x2 = 0	876.9	878	878.9	880	881	881.9	882.9	883.9	884.9	885.9
x2 = 0.1	880.2	881.4	882.5	883.7	884.7	885.9	887	888	889.1	890.1
x2 = 0.2	–	884.1	885.4	886.7	887.9	889.2	890.4	891.6	892.7	893.9
x2 = 0.3	–	886.2	887.6	889.1	890.5	891.9	893.3	894.6	896	897.2
x2 = 0.4	–	–	888.8	890.6	892.2	893.9	895.4	897	898.6	900
x2 = 0.5	–	–	–	889.9	891.9	893.9	895.8	897.7	899.6	901.4
x2 = 0.6	–	–	–	–	–	890.1	892.6	895	897.4	899.7
x2 = 0.7	–	–	–	–	–	879.2	882.7	886.2	889.4	892.5
x2 = 0.8	–	–	–	–	–	–	858.2	863.7	869	873.9
x2 = 0.9	–	–	–	–	–	–	–	800.6	813	823.7
x2 = 0.95	–	–	–	–	–	–	–	–	745.6	767.4
